Key:
in vivo = experiment: in vivo; parameters: species or system mouse; details: sc; for Tmax / half-life: male, CD-1, mouse; for stability in the circulation: mouse
Protocol: Ninety animals were procured from LAR. Animals were acclimatized for 1 day. On Day 0, each animal was weighed. […] Animals were injected subcutaneously at 1 mg/kg for the corresponding agonist (dose volume: 10 mL/kg) using 26½ gauge needles. At 1, 2, 4, 8, 12, 24, 48, 72, and 96 h, ~500 μL of blood was collected by retro‐orbital plexus puncture using capillary micro‐centrifuge tubes containing anticoagulant (15 μL 10% K2 EDTA). Plasma was separated from blood by centrifugation at ~3300 rpm for 10 min at 4°C. HISHS‐2001 concentrations were estimated using liquid chromatography with tandem mass spectrometry.

human GLP-1R [1] = target: T1, human GLP-1R (Homo sapiens, UniProt P43220); experiment: GLP-1R binding kinetics, TR-FRET competitive kinetics with exendin(9-39)-FITC; details: calculated from K on and K off; HISHS-2001 versus tirzepatide
Protocol: HEK293‐SNAP‐GLP‐1R cells were seeded overnight in 12‐well plates. On the day of the assay, cells were labelled with 40 nM Lumi4‐Tb (Cisbio) in complete medium for 30 min. After washing, labelled cells were preincubated for 20 min in Hanks' Balanced Salt Solution (HBSS) supplemented with 0.1% BSA and a metabolic inhibitor cocktail (10 mM NaN3, 20 mM 2‐deoxyglucose) to inhibit GLP‐1R endocytosis that would otherwise influence binding assays. Ligand binding was then detected in real time using time‐resolved Förster resonance energy transfer (TR‐FRET) using a Flexstation 3 plate reader (Molecular Devices). […] Plate reader settings included 340 nm λexcitation, 520 nm (cut‐off 495 nm) and 620 nm (cut‐off 570 nm) λemission, 400 μs delay and 1500 μs integration time. Association and dissociation rate constants were calculated using the kinetics of competitive binding algorithm in GraphPad Prism 9.0.

human GLP-1R [2] = target: T1, human GLP-1R; experiment: cAMP assay in HEK293-SNAP-GLP-1R cells (HTRF); assay type: cell-based; details: 30-min stimulation, n = 4, compared to native GLP-1(7-36)NH2
Protocol: HEK293 cells stably expressing human GLP‐1R or human GIPR, each self‐labelling protein tag (SNAP)‐tagged at their N‐termini (Cisbio), were cultured in Dulbecco's Modified Eagle's Medium (DMEM) medium (Gibco), 10% fetal bovine serum (FBS) and 1% penicillin/streptomycin.
HEK293‐SNAP‐GLP‐1R, HEK293‐SNAP‐GIPR or GLP‐1R‐β‐arrestin 2 cells were seeded overnight in 12‐well plates. On the day of the assay, cells were resuspended and dispensed into white, 96‐well plates containing the indicated concentration of agonist prepared in serum‐free medium containing 0.1% bovine serum albumin (BSA). After a 30‐min stimulation, cAMP detection reagents (cAMP dynamic kit, Cisbio) were added, and the plate was read 60 min later using an HTRF‐compatible plate reader. Data were analysed using three‐parameter logistic fitting (GraphPad Prism 9.0) and normalised to the maximal fitted response of the reference ligand (GLP‐1 or semaglutide) for presentation purposes.

T1 sequence (P43220 24-463): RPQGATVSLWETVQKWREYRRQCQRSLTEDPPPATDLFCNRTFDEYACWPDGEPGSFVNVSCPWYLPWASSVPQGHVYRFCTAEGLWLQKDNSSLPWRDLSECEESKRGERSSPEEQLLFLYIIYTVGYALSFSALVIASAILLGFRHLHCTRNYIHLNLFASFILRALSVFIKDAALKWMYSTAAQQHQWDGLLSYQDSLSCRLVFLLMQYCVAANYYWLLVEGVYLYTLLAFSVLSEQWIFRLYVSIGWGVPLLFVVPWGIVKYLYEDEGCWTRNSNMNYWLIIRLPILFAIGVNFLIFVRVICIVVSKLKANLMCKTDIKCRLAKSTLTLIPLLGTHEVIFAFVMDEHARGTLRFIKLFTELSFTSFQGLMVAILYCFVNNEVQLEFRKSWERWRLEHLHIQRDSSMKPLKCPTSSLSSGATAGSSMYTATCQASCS

| SMILES | Tmax (in vivo) [h] | half-life (in vivo) [min] | stability in the circulation (in vivo) | calculated Kd at GLP-1R (human GLP-1R [1]) | cAMP potency (pEC50) at the GLP-1R (human GLP-1R [2]) |
| --- | --- | --- | --- | --- | --- |
| CC[C@H](C)[C@H](NC(=O)[C@H](CC(C)C)NC(=O)[C@H](Cc1c[nH]c2ccccc12)NC(=O)[C@H](CCC(N)=O)NC(=O)[C@@H](NC(=O)[C@H](Cc1ccccc1)NC(=O)[C@H](C)NC(=O)[C@H](CCCCNC(=O)COCCOCCNC(=O)COCCOCCNC(=O)CC[C@H](NC(=O)CCCCCCCCCCCCCCCCCCC(=O)O)C(=O)O)NC(=O)[C@H](CCC(N)=O)NC(=O)[C@H](C)NC(=O)[C@@H](NC(=O)[C@H](CCCCN)NC(=O)[C@H](CC(=O)O)NC(=O)[C@H](CC(C)C)NC(=O)C(C)(C)NC(=O)[C@@H](NC(=O)[C@H](CO)NC(=O)[C@H](Cc1ccc(O)cc1)NC(=O)[C@H](CC(=O)O)NC(=O)[C@H](CO)NC(=O)[C@@H](NC(=O)[C@H](Cc1ccccc1)NC(=O)[C@@H](NC(=O)CNC(=O)[C@H](CCC(=O)O)NC(=O)C(C)(C)NC(=O)[C@@H](N)Cc1ccc(O)cc1)[C@@H](C)O)[C@@H](C)O)[C@@H](C)CC)[C@@H](C)CC)C(C)C)C(=O)N[C@@H](C)C(=O)NCC(=O)NCC(=O)N1CCC[C@H]1C(=O)N[C@@H](CO)C(=O)N[C@@H](CO)C(=O)NCC(=O)N[C@@H](C)C(=O)N1CCC[C@H]1C(=O)N1CCC[C@H]1C(=O)N1CCC[C@H]1C(=O)N[C@@H](CO)C(N)=O [tirzepatide, reference compound] | 8 | 527 | similar | – | – |
| CC[C@H](C)[C@H](NC(=O)[C@H](CC(C)C)NC(=O)[C@H](Cc1c[nH]c2ccccc12)NC(=O)[C@H](CCC(N)=O)NC(=O)[C@@H](NC(=O)[C@H](Cc1ccccc1)NC(=O)[C@H](C)NC(=O)[C@H](CCCCNC(=O)COCCOCCNC(=O)C(C)(C)NC(=O)CC[C@H](NC(=O)CCCCCCCCCCCCCCCCCCC(=O)O)C(=O)O)NC(=O)[C@H](CCC(N)=O)NC(=O)[C@H](C)NC(=O)[C@@H](NC(=O)[C@H](CCCCN)NC(=O)[C@H](CC(=O)O)NC(=O)[C@H](CC(C)C)NC(=O)C(C)(C)NC(=O)[C@@H](NC(=O)[C@H](CO)NC(=O)[C@H](Cc1ccc(O)cc1)NC(=O)[C@H](CC(=O)O)NC(=O)[C@H](CO)NC(=O)[C@@H](NC(=O)[C@H](Cc1ccccc1)NC(=O)[C@@H](NC(=O)CNC(=O)[C@H](CCC(=O)O)NC(=O)C(C)(C)NC(=O)[C@@H](N)Cc1ccc(O)cc1)[C@@H](C)O)[C@@H](C)O)[C@@H](C)CC)[C@@H](C)CC)C(C)C)C(=O)N[C@@H](C)C(=O)NCC(=O)NCC(=O)N1CCC[C@H]1C(=O)N[C@@H](CO)C(=O)N[C@@H](CO)C(=O)NCC(=O)N[C@@H](C)C(=O)N1CCC[C@H]1C(=O)N1CCC[C@H]1C(=O)N1CCC[C@H]1C(=O)N[C@@H](CO)C(N)=O [HISHS-2001] | 8 | 605 | similar | also lower | significantly reduced potency |

— publication PMC12409219, “Binding kinetics, bias, receptor internalization and effects on insulin secretion in vitro and in vivo of a novel GLP‐1R/GIPR dual agonist, HISHS‐2001” (Diabetes, Obesity & Metabolism, 2025)
